Data published in patent publication US9597393B2, “Synthetic toll-like receptor-4 (TLR-4) agonist peptides” (AV Therapeutics, Inc., priority 2012, dated 2017).
Entries after “also recorded” stand apart in the source; their conditions may differ. Ends that are not written are not given here.

Legend:
[1] = Water solubility of peptide stock; assay type: physicochemical; details: endotoxin free water; dissolved in 1% DMSO instead
Experimental: The LPS peptide mimics were dissolved in endotoxin free water (HyClone) at a concentration of 1 μg/ml with the exception of peptide 4 which was dissolved in a solution of 1% DMSO made in endotoxin free water at 1 μg/ml concentration. All of the peptide stock solutions and stored at −80° C. Each of the 12 peptides (RS01-RS12) was added to 96-well plates in triplicate in a total volume of 20 μl. The total volume required in each•well was made up with endotoxin free water (HyClone). 5×10^4 HEK-BLUE™-4 cells (Invivogen, San Diego, Calif.) were added per well and incubated for approximately 20 h after which the supernatant from each well was collected and placed into a new 96-well plate. 180 μl of HEK-BLUE™ detection media (Invivogen), alkaline phosphatase detection substrate, was added to each well and incubated for 1-3 h at 37° C. After a noticeable color change, the absorbance was taken at 630 nm using the microplate reader (Bio-Rad).
For all peptides, three concentrations, 1 μg/ml (black bars), 5 μg/ml (gray bars), and 10 μg/ml (white bars) were used to activate HEK-BLUE™-4 cells. LPS (0.1 μg/ml) was used as a positive control.

[2] = target: T1, TLR-4 (Homo sapiens, UniProt O00206); test: NF-κB activation (SEAP reporter) in HEK-BLUE-4 cells; assay type: cell-based; details: peptide 1, 5 and 10 μg/ml
T1 construct: host or cells: HEK-BLUE-4 (transgenic HEK293)
T1 sequence (O00206 24-839): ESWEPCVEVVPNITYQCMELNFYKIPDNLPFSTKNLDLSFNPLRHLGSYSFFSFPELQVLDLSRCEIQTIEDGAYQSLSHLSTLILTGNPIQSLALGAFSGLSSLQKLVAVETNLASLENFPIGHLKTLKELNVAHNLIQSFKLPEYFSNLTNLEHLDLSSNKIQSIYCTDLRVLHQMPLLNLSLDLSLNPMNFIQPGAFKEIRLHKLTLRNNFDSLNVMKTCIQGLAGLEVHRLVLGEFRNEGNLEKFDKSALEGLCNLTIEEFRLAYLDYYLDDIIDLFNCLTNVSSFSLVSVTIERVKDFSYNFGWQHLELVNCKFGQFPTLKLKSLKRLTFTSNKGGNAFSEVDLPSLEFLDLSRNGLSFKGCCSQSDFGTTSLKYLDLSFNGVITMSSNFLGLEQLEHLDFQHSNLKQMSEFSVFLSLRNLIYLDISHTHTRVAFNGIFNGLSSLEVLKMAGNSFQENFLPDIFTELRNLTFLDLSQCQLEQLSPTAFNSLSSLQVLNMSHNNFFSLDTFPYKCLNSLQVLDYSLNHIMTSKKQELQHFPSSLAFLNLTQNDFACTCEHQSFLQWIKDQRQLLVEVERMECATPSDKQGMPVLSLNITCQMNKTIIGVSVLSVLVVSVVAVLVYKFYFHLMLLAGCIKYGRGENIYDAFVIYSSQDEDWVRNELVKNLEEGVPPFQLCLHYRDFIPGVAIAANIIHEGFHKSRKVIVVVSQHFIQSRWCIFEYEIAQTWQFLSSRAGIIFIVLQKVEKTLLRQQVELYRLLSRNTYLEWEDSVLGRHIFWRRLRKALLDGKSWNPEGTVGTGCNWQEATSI
T1 sequence (Q9Y6Y9 17-160 partner limits assumed): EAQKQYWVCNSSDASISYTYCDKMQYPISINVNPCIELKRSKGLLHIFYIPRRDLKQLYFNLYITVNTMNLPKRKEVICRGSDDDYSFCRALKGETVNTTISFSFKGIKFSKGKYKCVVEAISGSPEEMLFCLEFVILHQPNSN
Experimental: FIG. 2—LPS peptide mimics activate NF-κB in HEK-BLUE™-4. LPS peptide mimics were dissolved in endotoxin free water and added to 96-well plates at three concentrations; 1 μg/ml (black bar), 5 μg/ml (gray bar), and 10 μg/ml (white bar). HEK-BLUE™4 were then added to each well at a concentration of 5×10^4 cells per well in complete media. The supernatant was then harvested after 24 h and assayed for alkaline phosphatase secretion indicating activation of NF-κB. NF-κB activation is represented in FIG. 2A for peptides RS01-RS07 and in FIG. 2B for peptides RS08-RS12. LPS was used as a positive control in assaying all peptides for NF-κB activation. Absorbance was taken at 630 nm. Each experiment was repeated three times with similar results observed. The standard deviation shown above each sample represents three replicates in one experiment.
The twelve peptides were assayed for their ability to bind to TLR-4 and activate NF-κB using a transgenic HEK293 cell line known as HEK-BLUE™-4. This cell line is stably transfected to only express TLR-4 on its plasma membrane, with no other TLRs present. Detecting activation of NF-κB is made possible by placing secreted alkaline phosphatase (SEAP) under the control of the NF-κB promoter. Therefore, NF-κB activation leads to SEAP secretion, which is detected by an alkaline phosphatase substrate in cell culture media.
The LPS peptide mimics were dissolved in endotoxin free water (HyClone) at a concentration of 1 μg/ml with the exception of peptide 4 which was dissolved in a solution of 1% DMSO made in endotoxin free water at 1 μg/ml concentration. All of the peptide stock solutions and stored at −80° C. Each of the 12 peptides (RS01-RS12) was added to 96-well plates in triplicate in a total volume of 20 μl. The total volume required in each•well was made up with endotoxin free water (HyClone). […] After a noticeable color change, the absorbance was taken at 630 nm using the microplate reader (Bio-Rad). […]

[3] = Immunogenicity of the adjuvant peptide itself in mice; assay type: in vivo; details: two groups of 3 mice vaccinated with 25 ng of peptide alone; data not shown
Excerpt: This significant increase in X-15 specific antibody concentration with RS09 was observed on day 28 (white bar) post vaccination as shown in FIG. 6. […] Thus, while RS01 and RS09 were not immunogenic at the concentration used, RS09 was capable of enhancing production of X-15 specific antibodies.

[4] = system: prostate tumor; details: in vivo, administered with an adjuvant; cited from earlier work
[5] = system: NF-κB; test: NF-κB nuclear translocation Western blot in non-TLR-4 expressing HEK293 (negative control cells); assay type: cell-based; details: HEK293 lacking TLR-4
Experimental: FIG. 3—LPS peptide mimics lead to NF-κB nuclear translocation. Nuclear translocation studies of NF-κB were performed by Western blot analysis on both RAW264.7 (FIG. 3A), HEK-BLUE™-4 (FIG. 3B), and HEK293 (FIG. 3C) cells. Cells were stimulated with peptide, either RS01 or RS09, at a concentration of 5 μg/ml per 5×10^4 cells at various time points (15, 30, 60, and 120 min) Nuclear protein fractions were assayed for NF-κB while cytoplasmic proteins fractions were assayed for both NF-κB and IκB-α. HDAC was used as a nuclear protein loading control and actin was used as a cytoplasmic protein loading control.
For NF-KB nuclear translocation western blots, cytoplasmic and nuclear protein extracts were prepared from HEK-BLUE™-4, HEK293, and RAW264.7 cells (2×10^6 cells) using NE-PER, nuclear and cytoplasmic extraction reagent kit (PIERCE, Rockford, Ill.). The manufacturer's protocol was followed to separate cytoplasmic and nuclear fractions. Nuclear and cytoplasmic lysates (10 μg protein) were subjected to 12% SDS-PAGE under reducing conditions (presence of β-mercaptoethanol). […] After four washes with TBST and one wash with TBS, membranes were developed by ECL (Pierce) and detected on HyBlot CL™ autoradiography film (Denville Scientific, Inc, Metuchen, N.J.). […]

[6] = system: NF-κB; test: Fluorescence microscopy of NF-κB nuclear translocation in RAW264.7; assay type: cell-based; details: 5 μg/ml, 30 min
Experimental: FIG. 4—Fluorescence microscopy of NF-κB nuclear translocation. RAW264.7 macrophages were seeded in 8 well chamber slides at a density of 2×10^4 cells per well and stimulated with 5 μg/ml of either RS01 or RS09. After 30 min incubation, cells were fixed (4% para-formaldehyde), permeabilized (0.2% TRITON® X-100), blocked (10% goat serum/1% BSA), and incubated with anti-NF-κB followed by DAPI staining of nuclei. The stained cells were visualized using the Axiovert 200 M microscope with a 40× magnification. NF-KB (green) was more diffusely spread throughout the cytoplasm in control cells but appeared more circular in RS01, RS09, and LPS treated cells.
HEK-BLUE™-4 and RAW264.7 cells were seeded in 8-chamber slides (BD Biosciences, Bedford, Mass.) at a density of 2×10^4 cells per well. Cells were allowed to adhere at 37° C. over night after which the cells were stimulated with LPS peptide mimics at various time points and subsequently processed for immunofluorescence. The cells were fixed with a 4% paraformaldehyde/PBS solution, followed by permeabilization with 0.2% TRITON® X-100, and blocked using a solution of 0.1% TRITON® X-100, 1% BSA, and 10% goat serum. […]

[7] = system: RAW264.7 cells; test: Inflammatory cytokine secretion from RAW264.7 macrophages (antibody array); assay type: cell-based, mouse; details: 24 h
Experimental: FIG. 5—RAW264.7 secretes inflammatory cytokines in response to RS01 and RS09. RAW264.7 cells were seeded at a density of 1×10^6 cells per well of a six well plate followed by addition of either […] (FIG. 5A) or RS09 (FIG. 5B) and incubated for 24 h after which the culture media was collected. LPS was used as a positive control for both RS01 and RS09. Culture media was then analyzed for specific cytokines using an antibody array kit. […] Each cytokine is represented as an IDV value which was calculated by comparing the density of each spot with respect to the density of the internal positive controls. The antibody array represents a qualitative comparison of each cytokine and is […]. Each experiment was repeated three times with similar results observed. […]
RAW264. […] The blots were then developed using ECL (Pierce) and detected on HyBlot CL™ autoradiography film (Denville Scientific). […]
Although the values obtained for each cytokine are not quantitative but rather qualitative, they do show an increase in release of inflammatory cytokines. These values were calculated and presented as IDV, which is the density of each spot compared to the density of the internal positive controls present on each membrane. Values for the various cytokines and chemokines detected are presented in FIG. 5A for RS01 and FIG. 5B for RS09. […]

Substance: GLQQVLL [RS04, Gly Leu Gln Gln Val Leu Leu]
- water solubility [1]: not water soluble

Substance: VVPTPPY [RS11]
- TLR-4 stimulation and NF-κB activation (alkaline phosphatase secretion, absorbance 630 nm) [2]: considered as positive for TLR-4 stimulation and NF-κB activation

Substance: APPHALS [RS09, Ala Pro Pro His Ala Leu Ser]
- antibody response to the adjuvant peptide (immunogenicity) [3]: no antibodies were produced

Substance: QEINSSY [RS01, Gln Glu Ile Asn Ser Ser Tyr]
- antibody response to the adjuvant peptide (immunogenicity) [3]: no antibodies were produced

Substance: GQWQSGDRYWMETST (also: KLH conjugate) [Peptide X-15]
- prostate tumor protective properties [4]: possess prostate tumor protective properties in vivo

Substance: ELAPDSP [RS12]
- TLR-4 stimulation and NF-κB activation (alkaline phosphatase secretion, absorbance 630 nm) [2]: considered as positive for TLR-4 stimulation and NF-κB activation

Substance: Lipopolysaccharide [LPS]
- NF-κB nuclear translocation [5]: do not activate the non-TLR-4 expressing HEK293 cells; also recorded: did not result in nuclear translocation
- NF-κB nuclear localization (immunofluorescence, DAPI merge) [6]: nuclear localization of NF-κB was observed
- secretion of inflammatory cytokines and chemokines (IDV, qualitative) [7]: capable of inducing inflammatory cytokines and chemokines

Substance: SMPNPMV [RS03]
- TLR-4 stimulation and NF-κB activation (alkaline phosphatase secretion, absorbance 630 nm) [2]: considered as TLR-4 stimulating and hence activators of NF-κB
